Experimental data published in PubChem BioAssay AID248 (DTP/NCI, 2004).
Values joined by “and” are separate entries in the source; they are usually repeats but may differ in a detail not shown here. Equal entries are not always repeated. Toxic doses and inconclusive results are not listed. Rule as the data show it: active = T/C of 150% or more; inactive = T/C below 125%. Peptide text beside a SMILES is read from it. * marks the point of attachment. Trt = c1ccc(C(c2ccccc2)(c2ccccc2)*)cc1; Boc = CC(C)(C)OC(=O)*

System: L1210 leukemia ip in BDF1 mice, survival T/C
Test: NCI In Vivo Anticancer Drug Screen. Data for tumor model L1210 Leukemia (intraperitoneal) in B6D2F1 (BDF1) mice
Details: endpoint: mean survival time, higher = longer survival
Outline: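 In this screen, tumor-bearing mice given compound are compared to those given vehicle, and their survival values are reported as a treated-to-control quotient.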

[1] = dose: 100.0 mg/kg/injection, schedule: Q04DX003 (ip), vehicle: saline with Tween-80
[2] = dose: 200.0 mg/kg/injection, schedule: Q04DX003 (ip), vehicle: saline with Tween-80
[3] = dose: 400.0 mg/kg/injection, schedule: Q04DX003 (ip), vehicle: saline with Tween-80
[4] = dose: 100.0 mg/kg/injection, schedule: Q04DX002 (ip), vehicle: Klucel (hydroxypropylcellulose) (HPC)
[5] = dose: 200.0 mg/kg/injection, schedule: Q04DX002 (ip), vehicle: Klucel (hydroxypropylcellulose) (HPC)
[6] = dose: 400.0 mg/kg/injection, schedule: Q04DX002 (ip), vehicle: Klucel (hydroxypropylcellulose) (HPC)

Measured: T/C

CNC(=O)Oc1ccc(SC)c(C)c1
inactive: dose: 0.37 mg/kg/injection, schedule: Q01DX009 (ip), vehicle: Klucel (hydroxypropylcellulose) (HPC) 94 % of control | dose: 0.75 mg/kg/injection, schedule: Q01DX009 (ip), vehicle: Klucel (hydroxypropylcellulose) (HPC) 97 % of control | dose: 1.5 mg/kg/injection, schedule: Q01DX009 (ip), vehicle: Klucel (hydroxypropylcellulose) (HPC) 102 % of control and 103 % of control | dose: 5.0 mg/kg/injection, schedule: Q01DX001 (ip), vehicle: carboxymethylcellulose (CMC) 86 % of control | dose: 10.0 mg/kg/injection, schedule: Q01DX001 (ip), vehicle: carboxymethylcellulose (CMC) 94 % of control

CC(C)(C)OC(=O)NC(CSC(c1ccccc1)(c1ccccc1)c1ccccc1)C(=O)NC(Cc1ccccc1)C(=O)NCC(=O)O (stereo not drawn) (Boc-Cys(Trt)-Phe-Gly-OH; configuration not given here)
inactive: dose: 75.0 mg/kg/injection, schedule: Q01DX001 (ip), vehicle: saline 93 % of control | dose: 150.0 mg/kg/injection, schedule: Q01DX001 (ip), vehicle: saline 91 % of control

Cc1ccc(S(=O)(=O)N/N=C/C(C)(C)C(C)C)cc1
inactive: [1] 108 % of control | [2] 97 % of control | [3] 98 % of control

Nc1ccccc1CCc1ccccc1
inactive: [4] 103 % of control | [5] 100 % of control | [6] 100 % of control

CS/C(N)=N/N=C(\N)SC
inactive: dose: 25.0 mg/kg/injection, schedule: Q01DX009 (ip), vehicle: saline with Tween-80 101 % of control | dose: 25.0 mg/kg/injection, schedule: Q04DX003 (ip), vehicle: saline with Tween-80 91 % of control | dose: 50.0 mg/kg/injection, schedule: Q01DX009 (ip), vehicle: saline with Tween-80 95 % of control | dose: 50.0 mg/kg/injection, schedule: Q04DX003 (ip), vehicle: saline with Tween-80 90 % of control | dose: 100.0 mg/kg/injection, schedule: Q01DX001 (ip), vehicle: saline with Tween-80 102 % of control | [1] 111 % of control

C=C(C)C(=O)OC (tested in a mixture with another compound)
inactive: dose: 50.0 mg/kg/injection, schedule: Q04DX002 (ip), vehicle: Klucel (hydroxypropylcellulose) (HPC) 107 % of control | dose: 75.0 mg/kg/injection, schedule: Q01DX001 (ip), vehicle: other 96 % of control | [4] 101 % of control | dose: 150.0 mg/kg/injection, schedule: Q01DX001 (ip), vehicle: other 94 % of control | [5] 93 % of control | dose: 300.0 mg/kg/injection, schedule: Q01DX001 (ip), vehicle: other 91 % of control | [6] 90 % of control

CCCC(F)C(=O)OCC (stereo unspecified)
inactive: dose: 100.0 mg/kg/injection, schedule: Q01DX009 (ip), vehicle: saline with Tween-80 108 % of control | [1] 98 % of control | dose: 200.0 mg/kg/injection, schedule: Q01DX009 (ip), vehicle: saline with Tween-80 94 % of control | [2] 96 % of control | dose: 400.0 mg/kg/injection, schedule: Q01DX009 (ip), vehicle: saline with Tween-80 87 % of control | [3] 106 % of control

O=C(/C=C/c1ccc([N+](=O)[O-])cc1)Nc1cccc(S(=O)(=O)F)c1
inactive: dose: 100.0 mg/kg/injection, schedule: Q01DX001 (ip), vehicle: saline 107 % of control | dose: 200.0 mg/kg/injection, schedule: Q01DX001 (ip), vehicle: saline 112 % of control | dose: 400.0 mg/kg/injection, schedule: Q01DX001 (ip), vehicle: saline 101 % of control

c1ccc(C(c2ccccc2)[Si](c2ccccc2)(C(c2ccccc2)c2ccccc2)C(c2ccccc2)c2ccccc2)cc1
inactive: dose: 25.6 mg/kg/injection, schedule: Q04DX002 (ip), vehicle: saline with Tween-80 96 % of control | dose: 37.5 mg/kg/injection, schedule: Q01DX009 (ip), vehicle: Klucel (hydroxypropylcellulose) (HPC) 93 % of control | dose: 64.0 mg/kg/injection, schedule: Q04DX002 (ip), vehicle: saline with Tween-80 100 % of control | dose: 75.0 mg/kg/injection, schedule: Q01DX009 (ip), vehicle: Klucel (hydroxypropylcellulose) (HPC) 88 % of control | [1] 94 % of control | dose: 160.0 mg/kg/injection, schedule: Q04DX002 (ip), vehicle: saline with Tween-80 93 % of control | [2] 100 % of control | dose: 400.0 mg/kg/injection, schedule: Q04DX002 (ip), vehicle: saline with Tween-80 104 % of control | [3] 94 % of control

CN1CN(c2ccccc2)C2(CCN(CCCCCCCl)CC2)C1=O
inactive: dose: 75.0 mg/kg/injection, schedule: Q04DX003 (ip), vehicle: Klucel (hydroxypropylcellulose) (HPC) 95 % of control | dose: 150.0 mg/kg/injection, schedule: Q04DX003 (ip), vehicle: Klucel (hydroxypropylcellulose) (HPC) 96 % of control | dose: 300.0 mg/kg/injection, schedule: Q04DX003 (ip), vehicle: Klucel (hydroxypropylcellulose) (HPC) 95 % of control

CCCC(C(=O)c1ccc(OC)cc1)C(O)(C(F)(F)F)C(F)(F)F (stereo unspecified)
inactive: dose: 100.0 mg/kg/injection, schedule: Q04DX003 (ip), vehicle: Klucel (hydroxypropylcellulose) (HPC) 91 % of control | dose: 200.0 mg/kg/injection, schedule: Q04DX003 (ip), vehicle: Klucel (hydroxypropylcellulose) (HPC) 98 % of control | dose: 400.0 mg/kg/injection, schedule: Q04DX003 (ip), vehicle: Klucel (hydroxypropylcellulose) (HPC) 100 % of control

CCOC(=O)NC(=S)[S][Sb]([S]C(=S)NC(=O)OCC)[S]c1nc2ccc(N=Nc3ccc(NS(=O)(=O)c4ccc(NC(=O)C(Cl)Cl)cc4)cc3)cc2s1
inactive: dose: 100.0 mg/kg/injection, schedule: Q01DX001 (ip), vehicle: steriod suspending solution 95 % of control | dose: 200.0 mg/kg/injection, schedule: Q01DX001 (ip), vehicle: steriod suspending solution 105 % of control | dose: 400.0 mg/kg/injection, schedule: Q01DX001 (ip), vehicle: steriod suspending solution 92 % of control

C[C@]12CC[C@H]3[C@@H](CC[C@]4(O)C[C@@H](O)CC[C@]34C=O)[C@@]1(O)CC[C@@H]2c1ccc(=O)oc1
inactive: dose: 5.0 mg/kg/injection, schedule: Q01DX001 (ip), vehicle: saline 96 % of control | dose: 10.0 mg/kg/injection, schedule: Q01DX001 (ip), vehicle: saline 95 % of control | dose: 20.0 mg/kg/injection, schedule: Q01DX001 (ip), vehicle: saline 104 % of control | dose: 40.0 mg/kg/injection, schedule: Q01DX001 (ip), vehicle: saline 98 % of control | dose: 80.0 mg/kg/injection, schedule: Q01DX001 (ip), vehicle: saline 95 % of control

CC(C)(C)C(C)(O)CN (stereo unspecified)
inactive: dose: 100.0 mg/kg/injection, schedule: Q01DX009 (ip), vehicle: saline 95 % of control | dose: 200.0 mg/kg/injection, schedule: Q01DX009 (ip), vehicle: saline 95 % of control | dose: 400.0 mg/kg/injection, schedule: Q01DX009 (ip), vehicle: saline 95 % of control
